Results reported in patent US8569371B2, “Crystal forms of O-desmethylvenlafaxine fumarate” (Pliva Hrvatska D.O.O., priority 2010, dated 2013).

Assay: Differential Scanning Calorimetry (DSC) comparison of crystal forms
Type: physicochemical
Conditions: comparison of DSC curves (FIG. 6); heating rate 10° C./min, 20-200° C.; melting 34° C. higher than Form I and 16° C. higher than Form II
Method: Differential Scanning Calorimetry (DSC) A. Equipment Instrument: TA Universal Analysis Q1000 Software: Universal Analysis 2000 B. Experimental Parameters Heating rate: 10° C./min Temperature range: 20-200° C. Sample size: 2.00-5.00 mg Purge gas: Nitrogen, 40 ml/min Crucible: Hermetic pinholed

thermal stability as compared to forms I and II: enhanced thermal stability
Compound: CN(C)CC(c1ccc(O)cc1)C1(O)CCCCC1.O=C(O)/C=C/C(=O)O (stereo not shown) [O-Desvenlafaxine fumarate Form N, O-desmethylvenlafaxine fumarate]
